Measured values as given in the NIST ThermoML archive (doi:10.1016/j.jct.2013.04.015).

Experiments:
[1] = xn = mol fraction of the nth substance listed; details: for surface tension liquid-gas: Wilhelmy plate method; for mass density: 101 kPa, Liquid, Vibrating tube method
[2] = for surface tension liquid-gas: Wilhelmy plate method; for mass density: 101 kPa, Liquid, Vibrating tube method

CCCCn1cc[n+](C)c1.C[C@H](O)C(=O)[O-] [1-butyl-3-methylimidazolium L-lactate] + CCO
[1]
Details | mass density [kg/m3] | surface tension liquid-gas [mN/m]
298.15 K, x1 = 0.01 | – | 22.44
298.15 K, x1 = 0.0299 | – | 22.99
298.15 K, x1 = 0.0497 | – | 23.47
298.15 K, x1 = 0.0708 | – | 24
298.15 K, x1 = 0.0944 | – | 24.54
298.15 K, x1 = 0.0997 | 897.2 | –
298.15 K, x1 = 0.1987 | 959.5 | –
298.15 K, x1 = 0.2001 | – | 26.97
298.15 K, x1 = 0.3018 | – | 29.2
298.15 K, x1 = 0.3066 | 1002 | –
298.15 K, x1 = 0.4019 | – | 31.51
298.15 K, x1 = 0.4106 | 1028.2 | –
298.15 K, x1 = 0.4954 | 1042.5 | –
298.15 K, x1 = 0.499 | – | 33.45
298.15 K, x1 = 0.5989 | 1058.4 | –
298.15 K, x1 = 0.6216 | – | 35.27
298.15 K, x1 = 0.6985 | 1070.8 | –
298.15 K, x1 = 0.7009 | – | 36.3
298.15 K, x1 = 0.7524 | – | 37.06
298.15 K, x1 = 0.7869 | 1082.1 | –
298.15 K, x1 = 0.8381 | – | 38.77
298.15 K, x1 = 0.8978 | 1095.2 | –
298.15 K, x1 = 1 | 1111.2 | 42.92
308.15 K, x1 = 0.01 | – | 21.58
308.15 K, x1 = 0.0302 | – | 22.12
308.15 K, x1 = 0.0474 | – | 22.62
308.15 K, x1 = 0.0707 | – | 23.22
308.15 K, x1 = 0.0952 | – | 23.9
308.15 K, x1 = 0.0997 | 888.9 | –
308.15 K, x1 = 0.1987 | 951.9 | –
308.15 K, x1 = 0.2028 | – | 26.53
308.15 K, x1 = 0.3026 | – | 28.8
308.15 K, x1 = 0.3066 | 994.7 | –
308.15 K, x1 = 0.406 | – | 31.08
308.15 K, x1 = 0.4106 | 1021.1 | –
308.15 K, x1 = 0.4954 | 1034.3 | –
308.15 K, x1 = 0.4966 | – | 32.88
308.15 K, x1 = 0.5989 | 1050.4 | –
308.15 K, x1 = 0.6053 | – | 34.78
308.15 K, x1 = 0.6882 | – | 35.51
308.15 K, x1 = 0.6985 | 1062.4 | –
308.15 K, x1 = 0.7869 | 1073.8 | –
308.15 K, x1 = 0.7888 | – | 36.81
308.15 K, x1 = 0.8313 | – | 37.9
308.15 K, x1 = 0.8978 | 1086.9 | –
308.15 K, x1 = 1 | 1104.2 | 42.37
318.15 K, x1 = 0.01 | – | 20.88
318.15 K, x1 = 0.0304 | – | 21.56
318.15 K, x1 = 0.0448 | – | 21.9
318.15 K, x1 = 0.0702 | – | 22.56
318.15 K, x1 = 0.0958 | – | 23.39
318.15 K, x1 = 0.0997 | 881.9 | –
318.15 K, x1 = 0.1987 | 944 | –
318.15 K, x1 = 0.203 | – | 26.09
318.15 K, x1 = 0.3032 | – | 28.36
318.15 K, x1 = 0.3066 | 987.7 | –
318.15 K, x1 = 0.4034 | – | 30.45
318.15 K, x1 = 0.4106 | 1014.5 | –
318.15 K, x1 = 0.4954 | 1028.3 | –
318.15 K, x1 = 0.5017 | – | 32.46
318.15 K, x1 = 0.5989 | 1042.6 | –
318.15 K, x1 = 0.6042 | – | 34.23
318.15 K, x1 = 0.6657 | – | 34.84
318.15 K, x1 = 0.6985 | 1055.3 | –
318.15 K, x1 = 0.7561 | – | 35.48
318.15 K, x1 = 0.7869 | 1066.9 | –
318.15 K, x1 = 0.8319 | – | 36.61
318.15 K, x1 = 0.8978 | 1079.8 | –
318.15 K, x1 = 1 | 1097.7 | 42.01

CO [methanol]
[2]
Details | mass density [kg/m3] | surface tension liquid-gas [mN/m]
298.15 K | 786.4 | 22.22
308.15 K | 776.9 | 21.46
318.15 K | 767.2 | 20.46

CCCCO [butan-1-ol]
[2]
Details | mass density [kg/m3] | surface tension liquid-gas [mN/m]
298.15 K | 805.7 | 23.89
308.15 K | 798 | 23.46
318.15 K | 790.1 | 22.62

O [water]
[2]
Details | mass density [kg/m3] | surface tension liquid-gas [mN/m]
298.15 K | – | 71.85
308.15 K | 994.1 | 70.48
318.15 K | – | 68.89

CCCCO [butan-1-ol] + CCCCn1cc[n+](C)c1.C[C@H](O)C(=O)[O-]
[1], x2 = 0
Details | mass density [kg/m3] | surface tension liquid-gas [mN/m]
298.15 K | 805.7 | 23.89
308.15 K | 798 | 23.46
318.15 K | 790.1 | 22.62

O [water] + CCCCn1cc[n+](C)c1.C[C@H](O)C(=O)[O-]
[1], x2 = 0
Details | mass density [kg/m3] | surface tension liquid-gas [mN/m]
298.15 K | – | 71.85
308.15 K | 994.1 | 70.48
318.15 K | – | 68.89

CCCCn1cc[n+](C)c1.C[C@H](O)C(=O)[O-] [1-butyl-3-methylimidazolium L-lactate] + CO
[1]
Details | mass density [kg/m3] | surface tension liquid-gas [mN/m]
298.15 K, x1 = 0.0121 | – | 23.38
298.15 K, x1 = 0.0353 | – | 24.72
298.15 K, x1 = 0.0496 | – | 25.63
298.15 K, x1 = 0.0699 | – | 26.72
298.15 K, x1 = 0.0901 | – | 28.06
298.15 K, x1 = 0.0998 | 960.5 | –
298.15 K, x1 = 0.1051 | – | 28.6
298.15 K, x1 = 0.1968 | 1022.4 | –
298.15 K, x1 = 0.1995 | – | 31.01
298.15 K, x1 = 0.3 | 1063.1 | –
298.15 K, x1 = 0.3011 | – | 33.55
298.15 K, x1 = 0.3999 | 1075.9 | –
298.15 K, x1 = 0.4038 | – | 35.7
298.15 K, x1 = 0.5 | 1082.9 | –
298.15 K, x1 = 0.5029 | – | 36.97
298.15 K, x1 = 0.5996 | 1088 | –
298.15 K, x1 = 0.614 | – | 38.06
298.15 K, x1 = 0.7001 | 1090.5 | –
298.15 K, x1 = 0.7037 | – | 38.57
298.15 K, x1 = 0.8002 | 1091.5 | –
298.15 K, x1 = 0.8056 | – | 39.25
298.15 K, x1 = 0.8988 | 1097.8 | –
298.15 K, x1 = 0.9152 | – | 40.89
298.15 K, x1 = 1 | 1111.2 | 42.92
308.15 K, x1 = 0.0115 | – | 22.56
308.15 K, x1 = 0.0346 | – | 24.12
308.15 K, x1 = 0.0544 | – | 25.1
308.15 K, x1 = 0.0702 | – | 26.05
308.15 K, x1 = 0.091 | – | 27.26
308.15 K, x1 = 0.0998 | 956.6 | –
308.15 K, x1 = 0.1058 | – | 28.32
308.15 K, x1 = 0.1968 | 1019.4 | –
308.15 K, x1 = 0.2002 | – | 30.7
308.15 K, x1 = 0.3 | 1057.4 | –
308.15 K, x1 = 0.3033 | – | 33.15
308.15 K, x1 = 0.3999 | 1070.5 | –
308.15 K, x1 = 0.4003 | – | 35.37
308.15 K, x1 = 0.5 | 1077.4 | –
308.15 K, x1 = 0.5032 | – | 36.69
308.15 K, x1 = 0.5913 | – | 37.46
308.15 K, x1 = 0.5996 | 1084.2 | –
308.15 K, x1 = 0.7001 | 1085.4 | –
308.15 K, x1 = 0.7064 | – | 37.66
308.15 K, x1 = 0.791 | – | 38.03
308.15 K, x1 = 0.8002 | 1087.2 | –
308.15 K, x1 = 0.8938 | – | 39.37
308.15 K, x1 = 0.8988 | 1089 | –
308.15 K, x1 = 1 | 1104.2 | 42.37
318.15 K, x1 = 0.0118 | – | 21.91
318.15 K, x1 = 0.0364 | – | 23.48
318.15 K, x1 = 0.0527 | – | 24.57
318.15 K, x1 = 0.0711 | – | 25.49
318.15 K, x1 = 0.0907 | – | 26.91
318.15 K, x1 = 0.0998 | 953.2 | –
318.15 K, x1 = 0.1085 | – | 27.8
318.15 K, x1 = 0.1968 | 1014.3 | –
318.15 K, x1 = 0.2003 | – | 29.96
318.15 K, x1 = 0.3 | 1051.9 | –
318.15 K, x1 = 0.302 | – | 32.56
318.15 K, x1 = 0.3999 | 1066.8 | –
318.15 K, x1 = 0.4072 | – | 35.2
318.15 K, x1 = 0.5 | 1074.7 | –
318.15 K, x1 = 0.5096 | – | 36.52
318.15 K, x1 = 0.5996 | 1077.7 | –
318.15 K, x1 = 0.6103 | – | 36.74
318.15 K, x1 = 0.7001 | 1078 | –
318.15 K, x1 = 0.7054 | – | 36.95
318.15 K, x1 = 0.8002 | 1078.9 | –
318.15 K, x1 = 0.8108 | – | 37.31
318.15 K, x1 = 0.8845 | – | 38.3
318.15 K, x1 = 0.8988 | 1079.9 | –
318.15 K, x1 = 1 | 1097.7 | 42.01

CCO [ethanol] + CCCCn1cc[n+](C)c1.C[C@H](O)C(=O)[O-]
[1], x2 = 0
Details | mass density [kg/m3] | surface tension liquid-gas [mN/m]
298.15 K | 784.7 | 22.11
308.15 K | 776.2 | 21.13
318.15 K | 767 | 20.48
